# Key:
# neutrophils [1] = experiment: Neutrophil intraluminal crawling following fMLP-mediated arrest in vivo (intravital microscopy, cremaster); settings: compared to vehicle control; cremaster superfused with fMLP (10 μM), time-lapse microscopy 2 h; FIG. 9A
# Excerpt: Following post-adhesion strengthening, neutrophils undertake Mac-1 (an integrin) dependent migratory activity on the vascular side of the vessel wall prior to transmigration ([…] and Zarbock 2013). Previous studies have highlighted the importance of this step for successful neutrophil recruitment (Phillipson et al. 2006). To investigate the effects of Btk inhibition on this step of the leukocyte recruitment cascade, intraluminal crawling following fMLP (N-formylmethionine-leucyl-phenylalanine)-mediated arrest in vivo was investigated. Using intravital microscopy, intravascular crawling of neutrophils was examined as described previously (Phillipson et al. 2006). Briefly, anti-Gr-1 antibody (clone RB6-8C5), labelled with Alexa Fluor 488 (Molecular Probes, Eugene, Oreg., USA), was injected via the cannulated carotid artery prior to the experiment. Following preparation and exteriorization, the cremaster was superfused with fMLP (10 μM) and time-lapse microscopy was performed for 2 h. The number of adherent cells was determined.
# neutrophils [2] = experiment: Neutrophil recruitment to the necrotic zone following sterile liver injury (heat injury); assay type: in vivo; settings: 4 h after heat injury; spinning disc time-lapse microscopy; FIG. 9B
# [3] = test system: BioMAP human primary cell-based co-culture systems; experiment: BioMAP Diversity PLUS Panel; settings: FIG. 8
# Excerpt: The BioMAP Diversity Plus Panel (FIG. 7) provides broad phenotypic profiles for pharmaceutically active agents. The panel uses 12 individual BioMAP human primary cell-based co-culture systems to predictively model drug effects on multiple tissues and disease states, providing 148 clinically relevant biomarker readouts. […] The LDLR gene is associated with the low-density lipoprotein receptor, which binds low-density lipoproteins that carry cholesterol in blood. […] Decreased MCP-1, sTNFα, eotaxin-3, ICAM-1, IL-la, and IL-8 and increased sPGE2 is associated with PRN1008's inflammation related activities. Decreased CD38, sIgG, sIL-17A, sIL-2, sIL-6, and M-CSF and increased CD69 are associated with PRN1008's immunomodulatory activities. Decreased MMP-9, uPA, and PAI-I is associated with PRN 1008's tissue remodeling activities. Decreased thrombomodulin (TM) and modulated tissue factor (TF) is associated with PRN1008's hemostasis-related activities. Thus, the BioMAP Diversity Plus Panel data for PRN1008 supports its anti-inflammatory and cytokine inhibition mechanisms.
# [4] = test system: anti-GBM glomerulonephritis; experiment: Mouse anti-GBM glomerulonephritis model; assay type: in vivo; settings: for kidney pathology: kidney histology after Study Day 10, relative to Dex 1 mg/kg QD
# Procedure: The mouse anti-GBM glomerulonephritis model involves antibody mediated autoimmunity, and the model is histologically and mechanistically similar to glomerulonephritis in humans. The model also includes kidney deposition of immune complexes (IC), targeting glomerular basement membrane. The efficacy of Compound (IB) (also referred to as PRN1008) relative to the corticosteroid dexamethasone (Dex) was tested in a mouse anti-GBM glomerulonephritis model according to the design shown in FIG. 1. Briefly, to induce glomerulonephritis, mice were pre-sensitized with sheep IgG/FCA (Study Day −5). Five days later (Study Day 0), the mice received anti-GBM sheep IgG. Treatment with vehicle, Compound (IB), or Dex with various dosage regimes (Compound (IB): 10 mg/kg, 20 mg/kg, or 40 mg/kg QD or 20 mg/kg BID; Dex: 1 mg/kg QD; Vehicle: QD or BID) began at Study Day −1, one day prior to injection with anti-GBM sheep IgG. Treatment continued until Study Day 10, for […] treatment in total. Urine protein analysis was conducted on Study Days −6, −4, −1, 1, 3, 6, 8, and 10. Following Study Day 10, mice serum BUN levels were analyzed as a measure of kidney function, and kidney histology was performed.
# [5] = inflammation related activities
smiles,measurement,setting,value
"CC(C)(C)C=C(C#N)C(=O)N1CCC[C@@H](n2nc(-c3ccc(Oc4ccccc4)cc3F)c3c(N)ncnc32)C1 [Compound (IA), (R)-2-(3-(4-amino-3-(2-fluoro-4-phenoxyphenyl)-1H-pyrazolo[3,4-d]pyrimidin-1-yl)piperidine-1-carbonyl)-4,4-dimethylpent-2-enenitrile]",migratory activity of neutrophils (arrested cells that crawled),neutrophils [1],severely decreased
same,neutrophil recruitment following sterile liver injury,neutrophils [2],abolish neutrophil recruitment
"CC(C)(C=C(C#N)C(=O)N1CCC[C@@H](n2nc(-c3ccc(Oc4ccccc4)cc3F)c3c(N)ncnc32)C1)N1CCN(C2COC2)CC1 [Compound (IB), 2-[(3R)-3-[4-amino-3-(2-fluoro-4-phenoxy-phenyl)pyrazolo[3,4-d]pyrimidin-1-yl]piperidine-1-carbonyl]-4-methyl-4-[4-(oxetan-3-yl)piperazin-1-yl]pent-2-enenitrile]",LDLR,[3]; BioMAP Profile,decreased
same,"anti-proliferative activity, B cells",[3]; BioMAP Profile,Anti-proliferative activities
same,"anti-proliferative activity, T cells",[3]; BioMAP Profile,Anti-proliferative activities
same,"anti-proliferative activity, coronary artery smooth muscle cells",[3]; BioMAP Profile,Anti-proliferative activities
same,"anti-proliferative activity, endothelial cells",[3]; BioMAP Profile,Anti-proliferative activities
same,"anti-proliferative activity, fibroblasts",[3]; BioMAP Profile,Anti-proliferative activities
same,thrombomodulin (TM),[3]; hemostasis-related activities,Decreased
same,tissue factor (TF),[3]; hemostasis-related activities,modulated
same,CD38,[3]; immunomodulatory activities,Decreased
same,CD69,[3]; immunomodulatory activities,increased
same,M-CSF,[3]; immunomodulatory activities,Decreased
same,sIL-2,[3]; immunomodulatory activities,Decreased
same,sIL-6,[3]; immunomodulatory activities,Decreased
same,sIL-17A,[3]; immunomodulatory activities,Decreased
same,sIgG,[3]; immunomodulatory activities,Decreased
same,ICAM-1,[3]; [5],Decreased
same,IL-8,[3]; [5],Decreased
same,IL-la,[3]; [5],Decreased
same,MCP-1,[3]; [5],Decreased
same,eotaxin-3,[3]; [5],Decreased
same,sPGE2,[3]; [5],increased
same,sTNFα,[3]; [5],Decreased
same,MMP-9,[3]; tissue remodeling activities,Decreased
same,PAI-I,[3]; tissue remodeling activities,Decreased
same,uPA,[3]; tissue remodeling activities,Decreased
same,kidney weight gain (a surrogate for kidney inflammation),"[4]; 10, 20 or 40 mg/kg QD or 20 mg/kg BID, FIG. 5",dose dependent inhibition
same,serum blood urea nitrogen (BUN) levels,"[4]; 10, 20 or 40 mg/kg QD or 20 mg/kg BID, Study Day -1 to 10, FIG. 2",dose dependent inhibition
same,severe proteinuria,"[4]; 10, 20 or 40 mg/kg QD or 20 mg/kg BID, Study Day -1 to 10, FIG. 3",dose dependent inhibition
same,kidney pathology,[4]; FIG. 6,reduced kidney pathology
same,kidney pathology,"[4]; FIG. 6, listed as PRN1008","significantly reduced kidney pathology, superior to a steroid comparator (Dex)"
same,proteinuria during the study,"[4]; urine protein analysis Study Days -6 to 10, FIG. 4",reduced proteinuria
